Consider 3 substances from patent US20210015897A1, “METHODS TO PRODUCE PEPTIDES, POLYPEPTIDES OR CELLS FOR MODULATING IMMUNITY” (IMNATE SARL, priority 2017, published 2021).

One assay relates to CD4+ T cells. Put plainly: Proliferation of AAV-specific CD4+ T cells on peptide-loaded dendritic cells (thymidine incorporation). The assay is classed as cell-based, mice. The text has this:
The peptide of interest is then produced by chemical synthesis together with a potentiating motif made of a cysteine residue added to flanking regions on each side of the epitope (SEQ ID NO: 18).
In general terms: Dividing cells build labelled thymidine or BrdU into new DNA.

The subject of assay [1] is CD4+ T cells to the AAV capsid. Put plainly: Functional assay of spleen CD4+ T cells after subcutaneous immunisation with peptide in alum. The class given is in vivo, mice. Conditions: 4 subcutaneous administrations at fortnight intervals with alum; spleen 10 days after last immunization.
A further assay deals with AAV vector. Put plainly: Immune response to IV AAV vector particles in peptide-immunized mice. The class given is in vivo. Particulars: 10^9 AAV vector particles IV twice at an interval of 6 weeks. The text has this: Mice immunized with peptide of SEQ ID NO: 18 are then used for direct IV administration of 10^9 AAV vector particles administered twice at an interval of 6 weeks.

Assay [2] has as its system class II-restricted effector CD4+ T cells. The assay can be described thus: Peptide added to dendritic cells in cultures with class II-restricted effector CD4+ T cells. The assay is classed as cell-based, human. Here is the method:
Naïve human CD4+ T cells are obtained from peripheral blood of subjects carrying either the DQ2 or DQ8 haplotype using microbeads coated with an anti-CD4+ antibody. Such cells are incubated with autologous dendritic cells derived from peripheral blood monocytes and loaded with peptide of sequence (SEQ ID NO: 19) so as to obtain effector CD4+ T cells.
In parallel experiments, a peptide of same sequence but containing a potentiating motif within flanking residues is used. Thus, a peptide of sequence (SEQ ID NO: 20) is produced, which contains in its flanking residues a sequence derived from an antibody to CD4, specific for the second extracellular domain of CD4.

On to “SEQ ID NO: 17: AAV VP1 capsid peptide encompassing an epitope activating CD4+ T cells (FNGLDKGEPVNEA; AAV)”, for which, in the assay with CD4+ T cells, the “specificity of CD4+ T cell activation by thymidine incorporation as a marker of proliferation” value is reported as “confirmed to be specific”.

For “SEQ ID NO: 18: AAV VP1 epitope with a cysteine residue added to flanking regions on each side (HCFNGLDKGEPVNEACH; SEQ 17 + Cys and Cys)”, the “activity of CD4+ T cells obtained by the immunisation schedule” value in assay [1] was “exert a regulatory activity”. Further, in the assay on AAV vector, the “immune response towards the AAV vector” value is “do not mount an immune response towards the AAV vector”.

With “SEQ ID NO: 20: peptide of same sequence as SEQ ID NO: 19 with flanking sequence derived from an antibody to CD4 (QLQPFPQPQLPYPQRYD; SEQ I9 + CD4 motif)”, in assay [2], the “apoptosis of antigen-presenting dendritic cell and bystander effector CD4+ T cells” value is “induction of apoptosis”; the “conversion of effector CD4+ T cells” value is reported as “conversion of effector CD4+ T cells into cells with strong regulatory activity”.
